Test system: seizures in patients with TSC
Assay: Mean total seizures over time in TSC patients after administration of CBD (FIG. 2)
Type: in vivo, human
Conditions: starting dose 5 mg/kg/day, 2 week titration period
Experimental: Patients with TSC were administered a highly purified extract of cannabidiol (CBD) obtained from a cannabis plant described herein. Similar to Example 1, patients with a TSC diagnosis were administered a starting dose of 5 mg/kg/day CBD in addition to their baseline anti-epileptic drug (AED) regimen or placebo.
The daily dose was increased by 5 mg/kg increments until intolerance occurred or a maximum dose of 25 mg/kg/day was achieved. The starting dose increase from 5 mg/kg/day to 10 mg/kg/day occurred 7 days after administration of the first dose of CBD. […] The titration period occurred over two weeks. For patients in need of further seizure reduction, the dosage of 20 mg/kg/day was increased up to 25 mg/kg/day after one week.
All patients were taking at least two concomitant anti-epileptic drugs. These included clobazam; levetiracetam; topiramate; stiripentol; phenobarbital; lacsamide; valproic acid; zonisamide. The average number of concomitant antiepileptic drugs being taken was 2.7. The majority took either clobazam and/or valproic acid.
Prior to treatment with CBD, patients recorded the number of seizures they experienced. This established the baseline levels. During the course of treatment, patients recorded the number of seizures experienced each day.

C=C(C)[C@@H]1CCC(C)=C[C@H]1c1c(O)cc(CCCCC)cc1O [CBD Extract, Cannabidiol]
mean total seizures over time: starts decreasing during the titration period
